Experiment [1] concerns the target T1, 5-hydroxytryptamine receptor 2C (Homo sapiens, UniProt P28335).
T1 sequence (P28335 whole entry): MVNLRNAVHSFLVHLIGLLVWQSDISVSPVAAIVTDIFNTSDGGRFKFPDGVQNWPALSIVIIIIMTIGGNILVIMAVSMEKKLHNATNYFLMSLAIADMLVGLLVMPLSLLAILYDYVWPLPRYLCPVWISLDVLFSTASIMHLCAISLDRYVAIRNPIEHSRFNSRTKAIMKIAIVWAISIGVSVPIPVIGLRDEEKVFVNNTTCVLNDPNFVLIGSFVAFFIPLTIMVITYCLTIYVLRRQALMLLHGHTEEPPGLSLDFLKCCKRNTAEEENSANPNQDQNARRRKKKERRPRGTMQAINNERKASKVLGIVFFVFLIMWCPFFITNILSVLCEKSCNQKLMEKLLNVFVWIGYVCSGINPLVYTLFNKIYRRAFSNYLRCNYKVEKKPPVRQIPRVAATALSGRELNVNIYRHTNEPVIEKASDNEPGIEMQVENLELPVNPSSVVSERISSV
The experiment can be described thus: Receptor Selection and Amplification Technology.

In experiment [2] the target is 5-hydroxytryptamine receptor 2B (Homo sapiens, UniProt P41595). In words: Receptor Selection and Amplification Technology.
5-hydroxytryptamine receptor 2B, sequence (P41595 whole entry): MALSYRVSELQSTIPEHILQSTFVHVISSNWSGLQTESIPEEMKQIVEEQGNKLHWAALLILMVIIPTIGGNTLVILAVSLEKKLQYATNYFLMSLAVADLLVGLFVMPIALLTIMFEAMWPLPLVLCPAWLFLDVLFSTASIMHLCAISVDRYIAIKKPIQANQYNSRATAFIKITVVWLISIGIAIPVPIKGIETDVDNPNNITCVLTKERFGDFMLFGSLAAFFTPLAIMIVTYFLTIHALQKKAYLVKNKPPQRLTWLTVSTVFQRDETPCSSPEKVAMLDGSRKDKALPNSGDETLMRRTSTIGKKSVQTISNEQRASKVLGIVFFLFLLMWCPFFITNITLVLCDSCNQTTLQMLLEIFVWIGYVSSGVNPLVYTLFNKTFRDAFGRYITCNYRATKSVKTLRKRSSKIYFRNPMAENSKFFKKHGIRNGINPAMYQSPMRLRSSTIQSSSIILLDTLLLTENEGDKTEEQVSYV
Experiment [3] concerns the target T1, 5-hydroxytryptamine receptor 2C. In words: Radioligand Binding Assay. As to conditions: 4 °C. As to the method: (§1) For the membrane binding, NIH-3T3 cells were grown to 70% confluence in 15-cm2 dishes and transfected with 10 ug of receptor plasmid DNA using Polyfect transfection reagent (QIAGEN, Valencia, CA) according to manufacturer s protocols. Two days after transfection, cells expressing the desired serotonin receptor were homogenized in 20 mM HEPES/10 mM EDTA and spun down at 11,000g at 4 C for 30 min. The supernatant was discarded, and the pellet was resuspended in 20 mM HEPES/1 mM EDTA and spun down at the same setting. The pellet was then resuspended in 20 mM HEPES/0.5 mM EDTA, and membranes were used for binding assays. Bradford analysis was used to determine total membrane protein.

Experiment [4] deals with T2, 5-hydroxytryptamine receptor 2A (Homo sapiens, UniProt P28223). In words: Receptor Selection and Amplification Technology.
T2 sequence (P28223 whole entry): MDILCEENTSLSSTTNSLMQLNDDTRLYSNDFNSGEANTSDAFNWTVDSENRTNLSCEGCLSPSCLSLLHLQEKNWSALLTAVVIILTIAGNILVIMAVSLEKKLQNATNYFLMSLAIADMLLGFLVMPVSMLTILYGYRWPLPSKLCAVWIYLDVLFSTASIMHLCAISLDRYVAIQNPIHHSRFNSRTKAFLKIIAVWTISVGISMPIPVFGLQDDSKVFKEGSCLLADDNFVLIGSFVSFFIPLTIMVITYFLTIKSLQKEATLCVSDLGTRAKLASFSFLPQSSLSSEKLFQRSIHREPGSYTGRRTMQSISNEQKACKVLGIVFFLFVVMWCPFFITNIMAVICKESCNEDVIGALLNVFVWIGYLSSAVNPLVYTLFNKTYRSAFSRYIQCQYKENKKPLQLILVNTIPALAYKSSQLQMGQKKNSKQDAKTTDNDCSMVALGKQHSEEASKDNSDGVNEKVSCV
Experiment [5] addresses T2, 5-hydroxytryptamine receptor 2A. The experiment can be described thus: Radioligand Binding Assay. The note with it: 4 °C. How it is done: as §1

In general, IC50 refers to the concentration needed to halve the response being measured. A lower IC50 goes with higher potency. In general, Ki refers to a measure of affinity in units of concentration, obtained from inhibition or displacement.

Take `Cc1nc2sccn2c(=O)c1CCN1CCC(=C(c2ccc(F)cc2)c2ccc(F)cc2)CC1`: the IC50 in experiment [1] was 4.5 nM; in experiment [2] it was 3 nM. In addition, the Ki in experiment [3] is 0.44 nM.
Take `CN(C)CCON/C(=C/C=C1C=CC(=O)C=C1)c1ccccc1F` [eplivanserin]: the half-inhibitory concentration (IC50) in experiment [4] stood at 1 nM. The Ki worked out at 1.3 nM in experiment [3] and 0.046 nM in experiment [5].

The values above are taken from BindingDB's records for doi:10.1124/jpet.105.097006 (Acadia Pharmaceuticals, 2006).
